Literature values in US20130137664A1, “LOW-DOSED SOLID ORAL DOSAGE FORMS FOR HRT” (BAYER INTELLECTUAL PROPERTY GMBH, priority 2010, published 2013).

Test system: moderate or severe hot flushes in menopausal women
Details: 2 mg E2

C[C@]12CC[C@@H]3c4ccc(O)cc4CC[C@H]3[C@@H]1CC[C@@H]2O [E2, estradiol]
estrogen-related adverse events: increased
